The target of this assay is T1, human M4 muscarinic acetylcholine receptor (Homo sapiens, UniProt P08173).
T1 construct: expressed in transfected cells; host or cells: CHO-K1
T1 sequence (P08173 1-479): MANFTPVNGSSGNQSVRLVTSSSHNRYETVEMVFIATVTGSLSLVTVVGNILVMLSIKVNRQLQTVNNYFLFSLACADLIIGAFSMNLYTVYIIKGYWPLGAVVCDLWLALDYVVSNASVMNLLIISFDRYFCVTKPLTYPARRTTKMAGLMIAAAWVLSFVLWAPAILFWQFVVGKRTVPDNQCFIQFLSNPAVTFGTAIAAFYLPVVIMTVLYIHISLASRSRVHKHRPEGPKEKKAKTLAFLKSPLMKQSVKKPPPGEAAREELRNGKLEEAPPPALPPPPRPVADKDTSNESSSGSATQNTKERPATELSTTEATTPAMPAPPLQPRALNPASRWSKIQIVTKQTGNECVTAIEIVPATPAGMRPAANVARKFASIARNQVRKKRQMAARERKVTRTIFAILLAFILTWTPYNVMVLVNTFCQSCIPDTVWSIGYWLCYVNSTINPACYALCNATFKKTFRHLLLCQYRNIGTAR
Description: human FLIPR-based M4 PAM assay (CHO-K1 cells with human M4 receptor and Gaqi5, calcium dye fluorescence). In kind it is cell-based. Particulars: inflection point (IP) of dose response curve, acetylcholine added at 20% of maximum response, read-out: M4 FLIPPR Hu IP. On the procedure: (§1) In a typical experiment the M4 muscarinic acetylcholine receptor modulating activity of the compounds of the present invention was determined in accordance with the following experimental method. CHO-K1 cells stably transfected with human M4 receptor and chimeric G-protein Gaqi5 (Coward P, et al., Analytical Biochemistry, 270:242-248 (1999)) are thawed from liquid N2 storage, resuspended in growth medium, plated in black, clear bottom 384 well plates, and incubated 16-20 hours at 37° C., 5% CO2. On the day of assay, growth medium is removed, the cells are washed 2 times with wash buffer, and cells are incubated in dye loading buffer at 37° C., 5% CO2 for ˜1 hour. Following dye loading the cell plates are placed in a FLIPR Tetra instrument and while monitoring dye fluorescence (excitation 470-495 […]), 10 uL of test substance at increasing concentrations is added, and fluorescence values are recorded for 4 min. Next, 10 uL of acetylcholine is added (final concentration calculated so as to achieve 20% of the maximum acetycholine response), and the fluorescence reading is continued for 3.5 min. In some cases, a third addition of acetylcholine (final concentration calculated to achieve 70% of the maximal acetylcholine response) is performed. The resulting dose response curves are fit to a 4 parameter logistic equation and the final result is determined as the inflection point (IP) of the curve
as §1, with “CHO-K1” for “In a typical experiment the M4 muscarinic acetylcholine receptor modulating activity of the compounds of the present invention was determined in accordance with the following experimental method. CHO-K1”, “Gaqi5” for “Gaqi5 (Coward P, et al., Analytical Biochemistry, 270:242-248 (1999))”, “performed.” for “performed. The resulting dose response curves are fit to a 4 parameter logistic equation and the final result is determined as the inflection point (IP) of the curve”
In the case of `Cc1ccc(-c2cnn(CC3C[C@@H](F)[C@@H](F)C3)c2)c(-c2ccc3cccnc3c2)n1` (mixture of isomers) [Example 27, 7-(3-(1-(((3R,4S and 3S,4R)-3,4-difluorocyclopentyl)methyl)-1H-pyrazol-4-yl)-6-methylpyridin-2-yl)quinoline (+/−)], the EC50 worked out at 0.064 µM.
For `Cc1ccc(-c2cnn(CC3C[C@H](F)[C@@H](F)C3)c2)c(-c2ccc3cccnc3c2)n1` (racemic) [Example 29, 7-(3-(1-(((3S,4S and 3R,4R)-3,4-difluorocyclopentyl)methyl)-1H-pyrazol-4-yl)-6-methylpyridin-2-yl)quinoline] the value was 0.039 µM; for `Cc1ccc(-c2cnn(C[C@H]3CC[C@H](F)C3)c2)c(-c2ccc3cccnc3c2)n1` (racemic) [Example 30, 7-(3-(1-(((1S,3S and 1R,3R)-3-fluorocyclopentyl)methyl)-1H-pyrazol-4-yl)-6-methylpyridin-2-yl)quinoline], 0.032 µM; for `Cc1ccc(-c2cnn(C[C@@H]3CC[C@H](F)C3)c2)c(-c2ccc3cccnc3c2)n1` (racemic) [Example 31, 7-(3-(1-(((1R,3S and 1S,3R)-3-fluorocyclopentyl)methyl)-1H-pyrazol-4-yl)-6-methylpyridin-2-yl)quinoline], 0.029 µM.
In the case of `Cc1ccc(-c2cnn(CC3CCC(F)(F)C3)c2)c(-c2ccc3cccnc3c2)n1` (single isomer, unassigned) [Example 129, (S or R)-7-(3-(1-((3,3-difluorocyclopentyl)methyl)-1H-pyrazol-4-yl)-6-methylpyridin-2-yl)quinoline] it was 0.022 µM.
For `Cc1ccc(-c2cnn(CC3CCC(F)(F)C3)c2)c(-c2ccc3cccnc3c2)n1` (single isomer, unassigned) [Example 130, (R or S)-7-(3-(1-((3,3-difluorocyclopentyl)methyl)-1H-pyrazol-4-yl)-6-methylpyridin-2-yl)quinoline] the value was 0.025 µM; for `Cc1ccc(-c2cnn(C[C@H]3CC[C@H](F)C3)c2)c(-c2ccc3cccnc3c2)n1` (single isomer, unassigned) [Example 131, 7-(3-(1-(((1S,3S) or (1R,3R)-3-fluorocyclopentyl)methyl)-1H-pyrazol-4-yl)-6-methylpyridin-2-yl)quinoline], 0.031 µM; for `Cc1ccc(-c2cnn(C[C@@H]3CC[C@@H](F)C3)c2)c(-c2ccc3cccnc3c2)n1` (single isomer, unassigned) [Example 132, 7-(3-(1-(((1R,3R) or (1S,3S)-3-fluorocyclopentyl)methyl)-1H-pyrazol-4-yl)-6-methylpyridin-2-yl)quinoline], 0.017 µM.
For `Cc1ccc(-c2cnn(C[C@@H]3CC[C@H](F)C3)c2)c(-c2ccc3cccnc3c2)n1` (single isomer, unassigned) [Example 133, 7-(3-(1-(((1R,3S) or (1S,3R)-3-fluorocyclopentyl)methyl)-1H-pyrazol-4-yl)-6-methylpyridin-2-yl)quinoline], the EC50 amounted to 0.017 µM.
For `Cc1ccc(-c2cnn(C[C@H]3CC[C@@H](F)C3)c2)c(-c2ccc3cccnc3c2)n1` (single isomer, unassigned) [Example 134, 7-(3-(1-(((1S,3R) or (1R,3S)-3-fluorocyclopentyl)methyl)-1H-pyrazol-4-yl)-6-methylpyridin-2-yl)quinoline] the value was 0.026 µM; for `COc1cc2ccc(-c3nc(C)ccc3-c3cnn(CC4(C)CCC(=O)C4)c3)cc2nn1` (single isomer, unassigned) [Example 148, (S or R)-3-((4-(2-(3-methoxycinnolin-7-yl)-6-methylpyridin-3-yl)-1H-pyrazol-1-yl)methyl)-3-methylcyclopentan-1-one], 0.067 µM.
For the compound `COc1cc2ccc(-c3nc(C)ccc3-c3cnn(CC4(C)CCC(F)(F)C4)c3)cc2nn1` (single isomer, unassigned) [Example 150, (R or S)-7-(3-(1-((3,3-difluoro-1-methylcyclopentyl)methyl)-1H-pyrazol-4-yl)-6-methylpyridin-2-yl)-3-methoxycinnoline], the EC50 was 0.022 µM.
In the case of `N#Cc1ccc(-c2cnn(CC3CCC(F)C3)c2)c(-c2ccc3cccnc3c2)n1` (single isomer, unassigned) [compound 146, 5-(1-(((1R,3S) or (1S,3R)-3-fluoro-cyclopentyl)methyl)-1H-pyrazol-4-yl)-6-(quinolin-7-yl)picolinonitrile] it was 0.05 µM; in that of `COc1cc2ccc(-c3nc(C)ccc3-c3cnn(CC4(C)CCC(=O)C4)c3)cc2nn1` (single isomer, unassigned; isomer a) [Example 149, 3-((4-(2-(3-methoxycinnolin-7-yl)-6-methylpyridin-3-yl)-1H-pyrazol-1-yl)methyl)-3-methylcyclopentan-1-one isomer A], 0.2 µM.
In the case of `COc1cc2ccc(-c3nc(C)ccc3-c3cnn(CC4(C)CCC(F)(F)C4)c3)cc2nn1` (single isomer, unassigned; isomer b) [Example 151, (S or R)-7-(3-(1-((3,3-difluoro-1-methylcyclo-pentyl)methyl)-1H-pyrazol-4-yl)-6-methylpyridin-2-yl)-3-methoxycinnoline isomer B], the EC50 was found to be 0.03 µM.
With `Cc1ccc(-c2cnn(CC3(F)CCCC3)c2)c(-c2ccc3c(c2)C(=O)N(C)C3)n1` [Example 1, 6-(3-(1-((1-fluorocyclopentyl)methyl)-1H-pyrazol-4-yl)-6-methylpyridin-2-yl)-2-methylisoindolin-1-one], the EC50 was determined as 0.017 µM.
For `Cc1cn2ccc(-c3nc(C#N)ccc3-c3cnn(CC4(F)CCCC4)c3)cc2n1` [Example 3, 5-(1-((1-fluorocyclopentyl)methyl)-1H-pyrazol-4-yl)-6-(2-methylimidazo[1,2-a]pyridin-7-yl)picolinonitrile] the value was 0.012 µM; for `Cc1cn2ccc(-c3ncccc3-c3cnn(CC4C[C@H](F)[C@@H](F)C4)c3)cc2n1` [Example 4, 7-(3-(1-(((3S,4S)-3,4-difluorocyclopentyl)methyl)-1H-pyrazol-4-yl)pyridin-2-yl)-2-methylimidazo[1,2-a] pyridine], 0.063 µM; for `Cc1cn2ccc(-c3ncccc3-c3cnn(CC4C[C@@H](F)[C@H](F)C4)c3)cc2n1` [Example 5, 7-(3-(1-(((3R,4R)-3,4-difluorocyclopentyl)methyl)-1H-pyrazol-4-yl)pyridin-2-yl)-2-methylimidazo[1,2-a]pyridine], 0.087 µM.
For the compound `Cc1ccc(-c2nc(C)ccc2-c2cnn(CC3CCCC3)c2)cc1` [Example 6, 3-(1-(cyclopentylmethyl)-1H-pyrazol-4-yl)-6-methyl-2-(p-tolyl)pyridine], the EC50 was found to be 0.072 µM.
Consider `Cc1ccc(-c2cnn(CC3CCCC3)c2)c(-c2cnc3c(c2)ncn3C)n1` [Example 7, 6-(3-(1-(cyclopentylmethyl)-1H-pyrazol-4-yl)-6-methylpyridin-2-yl)-3-methyl-3H-imidazo[4,5-b]pyridine], for which the EC50 was determined as 0.094 µM.
For `Cc1ccc(-c2cnn(CC3CCCC3)c2)c(-c2ccc(CCCO)cc2)n1` [Example 8, 3-(4-(3-(1-(cyclopentylmethyl)-1H-pyrazol-4-yl)-6-methylpyridin-2-yl)phenyl)propan-1-ol] the value was 0.054 µM.
In the case of `Cc1ccc(-c2cnn(CC3CCCC3)c2)c(-c2ccc(C(O)C(F)(F)F)cc2)n1` (stereo not drawn) [Example 9, 1-(4-(3-(1-(cyclopentylmethyl)-1H-pyrazol-4-yl)-6-methylpyridin-2-yl)phenyl)-2,2,2-trifluoroethan-1-ol] it was 0.05 µM; in that of `COc1cnc2cc(-c3nc(C)ccc3-c3cnn(CC4(C)CCCC4)c3)ccc2c1` [Example 10, 3-methoxy-7-(6-methyl-3-(1-((1-methylcyclopentyl)methyl)-1H-pyrazol-4-yl)pyridin-2-yl)quinoline], 0.025 µM.
